{"source": "ChEMBL document CHEMBL4376834", "about": "“Discovery of 4H-Chromen-4-one Derivatives as a New Class of Selective Rho Kinase (ROCK) Inhibitors, which Showed Potent Activity in ex Vivo Diabetic Retinopathy Models” (J Med Chem, 2019)", "key": {"[1]": {"biological_target": "Dual specificity tyrosine-phosphorylation-regulated kinase 2 (Homo sapiens, UniProt Q92630)", "test": "Inhibition of recombinant full length human DYRK2 using casein as substrate after 40 mins in presence of [gamma-33ATP] by radiometric scintillation counting analysis"}, "[2]": {"biological_target": "Calcium/calmodulin-dependent protein kinase type 1B (Homo sapiens, UniProt Q6P2M8)", "sequence (Q6P2M8 whole entry)": "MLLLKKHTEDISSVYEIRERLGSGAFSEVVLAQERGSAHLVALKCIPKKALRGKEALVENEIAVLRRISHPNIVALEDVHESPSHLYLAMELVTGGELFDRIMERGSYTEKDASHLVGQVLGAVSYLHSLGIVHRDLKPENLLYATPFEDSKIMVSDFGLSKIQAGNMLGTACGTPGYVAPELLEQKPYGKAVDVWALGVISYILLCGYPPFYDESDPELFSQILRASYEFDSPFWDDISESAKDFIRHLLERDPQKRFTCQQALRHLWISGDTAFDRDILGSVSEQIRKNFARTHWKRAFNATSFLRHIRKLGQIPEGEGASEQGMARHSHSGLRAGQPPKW", "test": "Inhibition of recombinant full length human CaMK1beta using KKLRRTLSFAEP as substrate incubated for 40 mins in presence of [gamma-33ATP] by radiometric scintillation counting analysis"}, "[3]": {"biological_target": "Hepatocyte growth factor receptor (Homo sapiens, UniProt P08581, D1228H)", "test": "Inhibition of recombinant human MET A1209G/V1290L/D1246H triple mutant (974 to end residues) using KKKGQEEEYVFIE as substrate incubated for 40 mins in presence of [gamma-33ATP by radiometric scintillation counting analysis"}, "[4]": {"biological_target": "Serine/threonine-protein kinase SBK1 (Homo sapiens, UniProt Q52WX2)", "test": "Inhibition of recombinant full-length human SBK1 using KKLRRTLSVA as substrate incubated for 120 mins in presence of [gamma33P]ATP by radiometric scintillation counting analysis"}, "CDK18/Cyclin Y": {"biological_target": "CDK18/Cyclin Y (Homo sapiens, UniProt Q07002+Q8ND76, T166M)", "sequence (Q07002 whole entry T166M, stated change not applied)": "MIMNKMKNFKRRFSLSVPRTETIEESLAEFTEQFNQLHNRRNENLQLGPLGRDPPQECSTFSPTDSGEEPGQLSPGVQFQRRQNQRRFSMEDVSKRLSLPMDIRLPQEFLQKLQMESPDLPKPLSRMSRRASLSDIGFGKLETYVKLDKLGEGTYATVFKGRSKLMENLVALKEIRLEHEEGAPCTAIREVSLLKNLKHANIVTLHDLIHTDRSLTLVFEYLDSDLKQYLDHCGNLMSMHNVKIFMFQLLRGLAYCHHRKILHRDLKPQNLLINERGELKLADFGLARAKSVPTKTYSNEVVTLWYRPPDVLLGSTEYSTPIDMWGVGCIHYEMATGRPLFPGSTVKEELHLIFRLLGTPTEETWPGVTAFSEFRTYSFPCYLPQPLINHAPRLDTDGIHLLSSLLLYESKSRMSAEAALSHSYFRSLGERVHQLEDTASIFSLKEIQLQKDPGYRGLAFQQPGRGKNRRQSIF", "sequence (Q8ND76 2-341 limits assumed, stated change not applied)": "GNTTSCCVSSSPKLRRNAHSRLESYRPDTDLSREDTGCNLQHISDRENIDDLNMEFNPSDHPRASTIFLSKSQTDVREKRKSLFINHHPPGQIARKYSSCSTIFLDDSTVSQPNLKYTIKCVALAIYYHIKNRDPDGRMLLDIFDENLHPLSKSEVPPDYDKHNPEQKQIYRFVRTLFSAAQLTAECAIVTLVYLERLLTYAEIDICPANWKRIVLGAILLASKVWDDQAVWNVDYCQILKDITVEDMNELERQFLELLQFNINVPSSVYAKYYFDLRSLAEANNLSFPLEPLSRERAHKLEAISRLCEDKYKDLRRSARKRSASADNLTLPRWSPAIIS", "test": "Inhibition of recombinant full length human cyclinY/CDK18 T166M mutant using YRRAAVPPSPSLS as substrate measured after 40 mins in presence of [gamma33P]ATP by radiometric scintillation counting analysis", "type": "protein-complex assay"}, "[5]": {"biological_target": "Serine/threonine-protein kinase Chk2 (Homo sapiens, UniProt O96017)", "test": "Inhibition of recombinant human CHK2 (5 to end residues) using KKKVSRSGLYRSP as substrate incubated for 40 mins in presence of [gamma-33ATP] by radiometric scintillation counting analysis"}, "[6]": {"biological_target": "Tyrosine-protein kinase receptor TYRO3 (Homo sapiens, UniProt Q06418)", "test": "Inhibition of recombinant human RSE (451 to end residues) using KVEKIGEGTYGVV as substrate incubated for 40 mins in presence of [gamma33P]ATP by radiometric scintillation counting analysis"}, "[7]": {"test": "Solubility of compound in miniQ water at 1 mg at 37 degreeC incubated under shaking conditions for overnight by LC-MS analysis", "type": "physicochemical"}, "[8]": {"biological_target": "Homeodomain-interacting protein kinase 2 (Homo sapiens, UniProt Q9H2X6)", "test": "Inhibition of human recombinant HIPK2 I471N mutant (165 to 564 residues) using myelin basic protein as substrate after 40 mins by [gamma-33ATP] radiometric assay"}, "[9]": {"biological_target": "TRAF2 and NCK-interacting protein kinase (Homo sapiens, UniProt Q9UKE5)", "test": "Inhibition of human TNIK (1 to 367 residues) using RLGRDKYKTLRQI as substrate incubated for 40 mins in presence of [gamma33P]ATP by radiometric scintillation counting analysis"}, "[10]": {"biological_target": "Tyrosine-protein kinase Fer (Homo sapiens, UniProt P16591)", "test": "Inhibition of recombinant human FER (541 to end residues) using KKKSPGEYVNIEF as substrate after 40 mins in presence of [gamma-33ATP] by radiometric scintillation counting analysis"}, "[11]": {"biological_target": "Tyrosine-protein kinase ABL1 (Homo sapiens, UniProt P00519, T315I)", "test": "Inhibition of human recombinant ABL1 T315I mutant (27 to end residues) using EAIYAAPFAKKK as substrate incubated for 40 mins in presence of [gamma-33P]ATP by radiometric scintillation counting analysis"}, "SRSF protein kinase 2": {"biological_target": "SRSF protein kinase 2 (Homo sapiens, UniProt P78362)", "test": "Inhibition of recombinant human SRPK2 (46 to end residues) using RSRSRSRSRSRSRSR as substrate incubated for 40 mins in presence of [gamma33P]ATP by radiometric scintillation counting analysis"}, "[12]": {"biological_target": "Protein kinase C theta type (Homo sapiens, UniProt Q04759)", "sequence (Q04759 whole entry)": "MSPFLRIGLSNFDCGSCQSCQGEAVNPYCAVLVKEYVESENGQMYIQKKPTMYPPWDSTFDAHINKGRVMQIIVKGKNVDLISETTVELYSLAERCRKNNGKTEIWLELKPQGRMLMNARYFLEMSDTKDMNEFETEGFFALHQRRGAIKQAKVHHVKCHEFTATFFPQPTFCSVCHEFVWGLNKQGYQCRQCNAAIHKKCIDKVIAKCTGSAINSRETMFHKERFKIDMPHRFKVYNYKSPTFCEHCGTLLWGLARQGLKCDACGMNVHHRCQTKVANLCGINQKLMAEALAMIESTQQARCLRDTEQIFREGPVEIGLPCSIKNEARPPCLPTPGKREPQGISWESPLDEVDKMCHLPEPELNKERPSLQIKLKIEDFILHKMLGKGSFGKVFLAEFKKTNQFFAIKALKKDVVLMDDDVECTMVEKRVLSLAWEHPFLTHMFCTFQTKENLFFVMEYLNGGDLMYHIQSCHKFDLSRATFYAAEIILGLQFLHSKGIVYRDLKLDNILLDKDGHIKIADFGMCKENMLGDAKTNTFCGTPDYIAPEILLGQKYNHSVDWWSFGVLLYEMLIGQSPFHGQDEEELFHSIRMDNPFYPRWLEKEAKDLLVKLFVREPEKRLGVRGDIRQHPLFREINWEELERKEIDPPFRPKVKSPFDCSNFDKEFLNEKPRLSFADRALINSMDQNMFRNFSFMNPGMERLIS", "test": "Inhibition of recombinant full length human PKCtheta using histone H1 as substrate incubated for 40 mins in presence of [gamma33P]ATP by radiometric scintillation counting analysis"}, "[13]": {"biological_target": "Dual specificity mitogen-activated protein kinase kinase 2 (Homo sapiens, UniProt P36507)", "test": "Inhibition of recombinant full length human MEK2 using MBP as substrate incubated for 40 mins in presence of [gamma-33ATP by radiometric scintillation counting analysis"}, "[14]": {"biological_target": "Epidermal growth factor receptor (Homo sapiens, UniProt P00533)", "sequence (P00533 whole entry)": "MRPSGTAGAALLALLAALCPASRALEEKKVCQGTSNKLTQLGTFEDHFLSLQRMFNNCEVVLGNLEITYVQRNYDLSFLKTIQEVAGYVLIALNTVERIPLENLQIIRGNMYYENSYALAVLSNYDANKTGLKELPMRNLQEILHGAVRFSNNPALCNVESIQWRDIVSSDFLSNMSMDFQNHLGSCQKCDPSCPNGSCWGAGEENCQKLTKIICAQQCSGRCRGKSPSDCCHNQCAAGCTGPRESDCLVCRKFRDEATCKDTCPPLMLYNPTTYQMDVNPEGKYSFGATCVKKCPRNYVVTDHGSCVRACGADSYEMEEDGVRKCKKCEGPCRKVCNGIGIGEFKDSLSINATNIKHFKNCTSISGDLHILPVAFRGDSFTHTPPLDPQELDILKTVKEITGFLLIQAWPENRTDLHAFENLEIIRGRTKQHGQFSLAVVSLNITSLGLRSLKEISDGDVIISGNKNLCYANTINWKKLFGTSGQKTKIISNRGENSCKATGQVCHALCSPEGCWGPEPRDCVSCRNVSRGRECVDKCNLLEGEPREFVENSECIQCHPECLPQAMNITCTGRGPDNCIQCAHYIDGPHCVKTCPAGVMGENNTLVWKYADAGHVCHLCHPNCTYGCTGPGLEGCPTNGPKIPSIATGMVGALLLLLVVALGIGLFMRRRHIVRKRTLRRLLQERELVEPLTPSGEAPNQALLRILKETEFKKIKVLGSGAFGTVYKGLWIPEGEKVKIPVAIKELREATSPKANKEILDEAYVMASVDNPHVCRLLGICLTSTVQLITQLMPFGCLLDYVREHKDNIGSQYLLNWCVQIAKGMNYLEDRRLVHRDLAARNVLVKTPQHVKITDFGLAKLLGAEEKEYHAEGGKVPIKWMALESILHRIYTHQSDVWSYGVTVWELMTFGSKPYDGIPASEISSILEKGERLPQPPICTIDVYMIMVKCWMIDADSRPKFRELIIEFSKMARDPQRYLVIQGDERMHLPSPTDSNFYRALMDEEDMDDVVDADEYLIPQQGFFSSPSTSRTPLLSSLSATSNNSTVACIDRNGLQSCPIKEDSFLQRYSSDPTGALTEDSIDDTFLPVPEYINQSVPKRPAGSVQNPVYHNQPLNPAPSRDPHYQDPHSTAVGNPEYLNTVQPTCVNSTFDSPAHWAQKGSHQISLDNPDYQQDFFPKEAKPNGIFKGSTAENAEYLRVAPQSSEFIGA", "test": "Inhibition of recombinant human EGFR (696 to end residues) using poly(Glu, Tyr) 4:1 as substrate after 40 mins in presence of [gamma-33ATP] by radiometric scintillation counting analysis"}, "[15]": {"biological_target": "cGMP-dependent protein kinase 1 (Homo sapiens, UniProt Q13976)", "sequence (Q13976 whole entry)": "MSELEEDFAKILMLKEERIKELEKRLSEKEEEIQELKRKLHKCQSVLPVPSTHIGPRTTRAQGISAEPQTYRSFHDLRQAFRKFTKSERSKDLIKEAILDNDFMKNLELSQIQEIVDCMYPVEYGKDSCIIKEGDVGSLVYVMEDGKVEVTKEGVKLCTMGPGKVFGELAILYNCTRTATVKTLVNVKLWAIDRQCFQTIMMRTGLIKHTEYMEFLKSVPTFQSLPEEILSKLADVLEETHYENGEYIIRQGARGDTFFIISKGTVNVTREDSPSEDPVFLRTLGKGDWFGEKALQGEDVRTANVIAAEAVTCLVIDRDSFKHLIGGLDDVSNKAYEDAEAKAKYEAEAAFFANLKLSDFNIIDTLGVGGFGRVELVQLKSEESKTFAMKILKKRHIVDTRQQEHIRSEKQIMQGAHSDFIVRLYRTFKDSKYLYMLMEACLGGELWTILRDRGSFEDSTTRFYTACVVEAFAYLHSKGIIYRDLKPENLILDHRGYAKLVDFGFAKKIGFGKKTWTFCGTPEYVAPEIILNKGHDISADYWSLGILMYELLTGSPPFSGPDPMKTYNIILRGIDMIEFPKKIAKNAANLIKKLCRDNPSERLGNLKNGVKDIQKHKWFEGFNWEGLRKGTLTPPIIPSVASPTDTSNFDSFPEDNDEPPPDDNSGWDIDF", "test": "Inhibition of recombinant full length human PKG1beta using RRRLSFAEPG as substrate incubated for 40 mins in presence of [gamma-33P]ATP by radiometric scintillation counting analysis"}, "[16]": {"biological_target": "PI3-kinase p110-alpha/p85-alpha (Homo sapiens, UniProt P42336, E542K)", "test": "Inhibition of recombinant human full length PI3K p110alpha/p85alpha E542K mutant using phosphatidylinositol 4,5-bisphosphate as substrate incubated for 40 mins in presence of [gamma33P]ATP by radiometric scintillation counting analysis"}, "[17]": {"biological_target": "Platelet-derived growth factor receptor alpha (Homo sapiens, UniProt P16234)", "test": "Inhibition of human PDGFRalpha (550 to end residues) using poly(Glu, Tyr) 4:1 as substrate measured after 40 mins in presence of [gamma33P]ATP by radiometric scintillation counting analysis"}, "[18]": {"biological_target": "BDNF/NT-3 growth factors receptor (Homo sapiens, UniProt Q16620)", "test": "Inhibition of recombinant human TRKB (455 to end residues) using poly(Glu, Tyr) 4:1 as substrate incubated for 40 mins in presence of [gamma33P]ATP by radiometric scintillation counting analysis"}, "[19]": {"biological_target": "cAMP-dependent protein kinase catalytic subunit beta (Homo sapiens, UniProt P22694)", "test": "Inhibition of recombinant full length human PKAcbeta using KEAKEKRQEQIAKR as substrate incubated for 40 mins in presence of [gamma33P]ATP by radiometric scintillation counting analysis"}, "[20]": {"biological_target": "Serine/threonine-protein kinase mTOR (Homo sapiens, UniProt P42345)", "test": "Inhibition of recombinant full length human mTOR measured after 40 mins in presence of [gamma33P]ATP by radiometric scintillation counting analysis"}, "[21]": {"biological_target": "Inhibitor of nuclear factor kappa-B kinase subunit beta (Homo sapiens, UniProt O14920)", "test": "Inhibition of recombinant full length human IKKbeta using peptide substrate after 40 mins by [gamma-33ATP] by radiometric scintillation counting analysis"}, "[22]": {"biological_target": "Serine/threonine-protein kinase SIK3 (Homo sapiens, UniProt Q9Y2K2)", "sequence (Q9Y2K2 whole entry, the tested form may be a part)": "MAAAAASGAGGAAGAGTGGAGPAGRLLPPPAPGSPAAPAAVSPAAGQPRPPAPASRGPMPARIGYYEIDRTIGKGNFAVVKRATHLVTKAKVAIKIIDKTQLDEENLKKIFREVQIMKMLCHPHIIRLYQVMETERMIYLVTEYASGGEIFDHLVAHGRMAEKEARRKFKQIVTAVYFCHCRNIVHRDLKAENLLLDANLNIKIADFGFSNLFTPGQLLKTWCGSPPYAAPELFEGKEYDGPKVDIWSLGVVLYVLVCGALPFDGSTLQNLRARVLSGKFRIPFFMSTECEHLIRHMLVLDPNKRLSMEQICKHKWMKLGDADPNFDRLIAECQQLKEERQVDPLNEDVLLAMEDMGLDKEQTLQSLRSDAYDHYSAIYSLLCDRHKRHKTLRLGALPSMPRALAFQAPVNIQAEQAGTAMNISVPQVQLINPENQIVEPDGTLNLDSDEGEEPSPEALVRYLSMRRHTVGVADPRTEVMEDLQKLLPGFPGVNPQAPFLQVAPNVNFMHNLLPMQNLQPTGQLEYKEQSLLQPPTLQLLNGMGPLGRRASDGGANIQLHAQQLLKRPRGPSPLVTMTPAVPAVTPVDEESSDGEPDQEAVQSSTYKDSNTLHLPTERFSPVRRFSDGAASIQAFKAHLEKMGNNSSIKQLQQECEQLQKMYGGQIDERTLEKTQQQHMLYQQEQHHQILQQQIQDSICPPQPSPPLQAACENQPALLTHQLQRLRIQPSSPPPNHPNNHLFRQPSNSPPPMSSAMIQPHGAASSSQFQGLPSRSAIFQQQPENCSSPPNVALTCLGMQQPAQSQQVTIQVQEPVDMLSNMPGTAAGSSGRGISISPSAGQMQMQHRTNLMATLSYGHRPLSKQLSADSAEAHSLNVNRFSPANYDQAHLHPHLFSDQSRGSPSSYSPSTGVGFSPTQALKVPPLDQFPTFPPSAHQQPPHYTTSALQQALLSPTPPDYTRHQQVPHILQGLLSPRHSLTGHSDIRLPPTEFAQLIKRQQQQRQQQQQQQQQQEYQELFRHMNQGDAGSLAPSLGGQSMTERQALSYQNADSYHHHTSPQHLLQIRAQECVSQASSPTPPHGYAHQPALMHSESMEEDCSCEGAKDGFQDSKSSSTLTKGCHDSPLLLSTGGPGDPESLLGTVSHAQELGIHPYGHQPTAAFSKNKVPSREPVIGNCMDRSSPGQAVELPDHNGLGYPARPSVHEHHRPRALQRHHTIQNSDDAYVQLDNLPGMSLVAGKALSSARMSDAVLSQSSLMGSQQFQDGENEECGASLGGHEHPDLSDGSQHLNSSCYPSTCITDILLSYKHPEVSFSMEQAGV", "test": "Inhibition of recombinant human SIK3 (1 to 307 residues) using KKKVSRSGLYRSP as substrate incubated for 40 mins in presence of [gamma33P]ATP by radiometric scintillation counting analysis"}, "[23]": {"biological_target": "Proto-oncogene tyrosine-protein kinase Src (Homo sapiens, UniProt P12931)", "test": "Inhibition of recombinant human SRC (1 to 530 residues) using GGEEEEYFELVKK as substrate incubated for 40 mins in presence of [gamma33P]ATP by radiometric scintillation counting analysis"}}, "data": [{"smiles": "CN(C)c1ccc(C(=O)Nc2cccc(NC(=O)COc3ccc4c(=O)ccoc4c3)c2)cc1", "values": [{"measurement": "IC50", "setting": "[1]", "result": "> 10", "unit": "µM"}, {"measurement": "IC50", "setting": "[2]", "result": "> 10", "unit": "µM"}, {"measurement": "IC50", "setting": "[3]", "result": "> 10", "unit": "µM"}, {"measurement": "IC50", "setting": "[4]", "result": "> 10", "unit": "µM"}, {"measurement": "IC50", "setting": "CDK18/Cyclin Y", "result": "> 10", "unit": "µM"}, {"measurement": "IC50", "setting": "[5]", "result": "> 10", "unit": "µM"}, {"measurement": "IC50", "setting": "[6]", "result": "> 10", "unit": "µM"}, {"measurement": "solubility thermodynamic", "setting": "[7]", "result": 0.634, "unit": "µg/mL"}, {"measurement": "IC50", "setting": "[8]", "result": "> 10", "unit": "µM"}, {"measurement": "IC50", "setting": "[9]", "result": "> 10", "unit": "µM"}, {"measurement": "IC50", "setting": "[10]", "result": "> 10", "unit": "µM"}, {"measurement": "IC50", "setting": "[11]", "result": "> 10", "unit": "µM"}, {"measurement": "IC50", "setting": "SRSF protein kinase 2", "result": "> 10", "unit": "µM"}, {"measurement": "IC50", "setting": "[12]", "result": "> 10", "unit": "µM"}, {"measurement": "IC50", "setting": "[13]", "result": "> 10", "unit": "µM"}, {"measurement": "IC50", "setting": "[14]", "result": "> 10", "unit": "µM"}, {"measurement": "IC50", "setting": "[15]", "result": 660, "unit": "nM"}, {"measurement": "IC50", "setting": "[16]", "result": "> 10", "unit": "µM"}, {"measurement": "IC50", "setting": "[17]", "result": "> 10", "unit": "µM"}, {"measurement": "IC50", "setting": "[18]", "result": "> 10", "unit": "µM"}, {"measurement": "IC50", "setting": "[19]", "result": "> 10", "unit": "µM"}, {"measurement": "IC50", "setting": "[20]", "result": "> 10", "unit": "µM"}, {"measurement": "IC50", "setting": "[21]", "result": "> 10", "unit": "µM"}, {"measurement": "IC50", "setting": "[22]", "result": "> 10", "unit": "µM"}, {"measurement": "IC50", "setting": "[23]", "result": "> 10", "unit": "µM"}]}]}
